{"source": "patent US20250277784A1", "about": "“EXPRESSION SYSTEMS FOR THE ALPHA6BETA4 NICOTINIC ACETYLCHOLINE RECEPTOR AND METHODS OF USE THEREOF” (Janssen Pharmaceutica NV, priority 2021, published 2025)", "key": {"Human α6β4 nAChR [1]": {"biological_target": "T1, Human α6β4 nAChR (Homo sapiens, UniProt P30926+Q15825)", "T1 construct": "expressed in transfected cells", "T1 sequence (Q15825 26-494)": "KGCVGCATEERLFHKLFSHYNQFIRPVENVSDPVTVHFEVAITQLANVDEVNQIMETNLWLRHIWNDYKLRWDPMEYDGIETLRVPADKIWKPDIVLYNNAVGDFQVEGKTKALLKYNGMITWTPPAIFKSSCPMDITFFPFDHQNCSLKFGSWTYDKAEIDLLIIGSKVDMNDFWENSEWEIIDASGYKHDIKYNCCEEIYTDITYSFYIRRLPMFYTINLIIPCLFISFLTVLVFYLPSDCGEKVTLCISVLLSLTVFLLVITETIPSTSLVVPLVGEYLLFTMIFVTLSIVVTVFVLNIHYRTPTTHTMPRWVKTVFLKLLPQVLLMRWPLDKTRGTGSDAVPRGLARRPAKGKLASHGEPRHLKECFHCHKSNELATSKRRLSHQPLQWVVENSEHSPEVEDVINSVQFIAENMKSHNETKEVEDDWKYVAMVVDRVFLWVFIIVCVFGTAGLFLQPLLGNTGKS", "T1 sequence (P30926 22-498)": "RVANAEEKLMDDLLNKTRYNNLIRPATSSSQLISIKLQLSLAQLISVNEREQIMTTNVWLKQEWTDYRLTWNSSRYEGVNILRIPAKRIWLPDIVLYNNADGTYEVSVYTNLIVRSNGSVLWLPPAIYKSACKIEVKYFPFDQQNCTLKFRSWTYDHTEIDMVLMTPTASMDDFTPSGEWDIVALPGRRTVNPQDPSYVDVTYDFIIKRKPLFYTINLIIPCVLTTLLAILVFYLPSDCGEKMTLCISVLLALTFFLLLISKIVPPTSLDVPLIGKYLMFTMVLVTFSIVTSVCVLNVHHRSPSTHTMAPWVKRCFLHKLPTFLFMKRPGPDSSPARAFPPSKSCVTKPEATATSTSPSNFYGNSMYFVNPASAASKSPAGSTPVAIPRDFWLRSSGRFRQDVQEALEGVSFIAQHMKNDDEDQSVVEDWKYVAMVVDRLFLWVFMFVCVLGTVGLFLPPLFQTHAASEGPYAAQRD", "assay": "FLIPR assay, agonist-evoked calcium flux in recombinant cells co-transfected with BARP, SULT2B1 and CHAT", "type": "cell-based", "experimental": "In one embodiment, FLIPR assay is used to identify agonists of α6β4 nAChR mediated calcium flux. In this assay, the recombinant cells are incubated with a calcium sensitive dye (such as Ca5), exposed to a test compound, and calcium flux is imaged by FLIPR^TETRA.\n• Prepare a cell suspension of 1×10^6 cells per mL by centrifuging cells and resuspending in fresh, prewarmed media; • With 1900 mL of cells shaking, prepare the following transfection mix in 50 ml of OptiPro SFM Medium; • Add 2.5 mL FreeStyle MAX reagent to 47.5 mL of OptiPro SFM to an empty 50 ml tube; • In a second 50 ml tube, add 2.5 mg total DNA (α6, β4, BARP, CHAT, and SULT2B1 at a ratio of 1:1:2:1:1) in OptiPro SFM to a final volume of 50 ml and vortex gently; • Transfer the diluted DNA to the FreeStyle MAX reagent and gently mix the solution immediately and incubate for 10 minutes at room temperature; • Transfer the 100 ml FreeStyle MAX/DNA transfection mix to the cells and homogenize the culture; • Incubate 1 hour at 37° C. with 8% CO2; • Pour cells into sterile 500 mL tubes; • Spin at 1000 rpm for 7 minutes; • Remove supernatant; and • Resuspend Cells in Plating Media.\n• Ethanol vials to decontaminate; • Pour cells into 50 ml conical tube; • Slowly add 10 ml warmed plating media drop wise; • Pipet up and down gently a few times to dislodge pellet if it exists; • Spin at 1000 RPM for 7 min, aspirate supernatant, and resuspend in 25 ml plating; • Seed 35,000 cells/well in 35 μL (1.0×10^6 cells/mL); and • Incubate plates for 24 hours at 37° C. Then transfer the plate to 30° C. with 5% CO2 in a humidified atmosphere for 24-48 hours.\n• Wash plate with plate washer (4 washes×100 μL/wash) using compound dilution buffer, leaving 25 µL in each well; • Add 25 μL of 2× Ca6 dye to each well; • Incubate at room temperature for 1 hour; • Wash plate with plate washer (4 washes×100 μL/wash) using compound dilution buffer, leaving 50 µL in each well; • Transfer plates to FLIPR for compound addition. Concentration Response Curves for Agonist-Evoked Activity of α6β4 nAChR\nHuman α6 and β4 subunits of α6β4 nAChR were co-transfected with BARP, SULT2B1, and CHAT in HEK293T cells and incubated at 30° C. for 24-48 hours. The transfected cells were incubated for one hour at room temperature with Ca5 dye followed by stimulating with agonists for 3.5 minutes. Agonist-evoked calcium flux was measured using a FLIPR^TETRA imager and final FLIPR signals were averaged and plotted (FIG. 1)."}, "[2]": {"system": "patients with diabetic peripheral neuropathic pain", "settings": "phase 2 clinical trial; cited from earlier work"}, "Human α6β4 nAChR [3]": {"biological_target": "T1, Human α6β4 nAChR", "assay": "FLIPR assay, antagonist on nicotine-evoked calcium flux (two-addition protocol)", "type": "cell-based", "settings": "HEK293T cells, 1st addition test compound 3 min, 2nd addition nicotine (EC80, 15 μM) 3.5 min, FIG. 2", "experimental": "In one embodiment, FLIPR assay is used to identify antagonists of nicotine-evoked α6β4 nAChR mediated calcium flux. In this assay, the recombinant cells are incubated with a calcium sensitive dye (such as Ca5). Using a double addition protocol, the recombinant cells are exposed to test compounds during the first duration, and to nicotine (e.g., at EC80 (15 μm)) during the second duration. Thereafter, the calcium flux is imaged by FLIPR^TETRA. […]\nHuman α6 and β4 subunits of α6β4 nAChR were co-transfected with BARP, SULT2B1, and CHAT in HEK293T cells and incubated at 30° C. for 24-48 hour. […] Nicotine-evoked calcium flux was then measured using a FLIPR^TETRA imager and the final FLIPR signals were averaged and plotted (FIG. 2)."}, "α6 knockout mice": {"system": "α6 knockout mice", "settings": "following both inflammatory and neuropathic injuries; cited from earlier work"}, "[4]": {"settings": "HEK293T cells, incubated at 30° C. for 24-48 hours, Ca5 dye, agonist stimulation 3.5 minutes, FIG. 1"}}, "note": "Read-outs that look alike come from different tables or passages of the source.", "data": [{"smiles": "c1cncc(OC[C@@H]2CCN2)c1", "note": "[A-85380]", "values": [{"measurement": "Agonist-evoked calcium flux (FLIPR signal)", "setting": "Human α6β4 nAChR [1]; [4]", "result": "enhances calcium flux in a dose-dependent manner"}]}, {"smiles": "Clc1ccc(OC[C@H]2CCN2)cn1", "note": "[ABT-594]", "values": [{"measurement": "Efficacy for diabetic neuropathy", "setting": "[2]", "result": "robust efficacy"}, {"measurement": "Side effects", "setting": "[2]", "result": "unacceptable side effects"}, {"measurement": "Agonist-evoked calcium flux (FLIPR signal)", "setting": "Human α6β4 nAChR [1]; [4]", "result": "enhances calcium flux in a dose-dependent manner"}]}, {"smiles": "Clc1cc(N2C[C@@H]3CN[C@@H]3C2)cnc1Cl", "note": "[ABT-894]", "values": [{"measurement": "Agonist-evoked calcium flux (FLIPR signal)", "setting": "Human α6β4 nAChR [1]; [4]", "result": "enhances calcium flux in a dose-dependent manner"}]}, {"smiles": "CCN1C[C@]2(COC(=O)c3ccccc3N3C(=O)C[C@H](C)C3=O)CC[C@H](OC)[C@@]34[C@@H]5C[C@H]6[C@H](OC)[C@@H]5[C@](O)(C[C@@H]6OC)[C@@](O)([C@@H](OC)[C@H]23)[C@@H]14", "note": "[MLA, methyllycaconitine]", "values": [{"measurement": "Nicotine-evoked calcium flux (FLIPR signal)", "setting": "Human α6β4 nAChR [3]", "result": "decreases the nicotine-evoked calcium flux in a dose-dependent manner"}]}, {"smiles": "O=c1cccc2n1C[C@@H]1CNC[C@H]2C1", "note": "[cytisine]", "values": [{"measurement": "Agonist-evoked calcium flux (FLIPR signal)", "setting": "Human α6β4 nAChR [1]", "result": "enhances calcium flux in a dose-dependent manner"}]}, {"smiles": "Clc1ccc(C2CC3CCC2N3)cn1", "note": "(stereo not drawn) [epibatidine]", "values": [{"measurement": "Agonist-evoked calcium flux (FLIPR signal)", "setting": "Human α6β4 nAChR [1]; [4]", "result": "enhances calcium flux in a dose-dependent manner"}]}, {"smiles": "CN1CCCC1c1cccnc1", "note": "(stereo not drawn) [nicotine]", "values": [{"measurement": "Analgesic effects", "setting": "α6 knockout mice", "result": "absent"}, {"measurement": "Agonist-evoked calcium flux (FLIPR signal)", "setting": "Human α6β4 nAChR [1]", "result": "enhances calcium flux in a dose-dependent manner"}, {"measurement": "Nicotine EC80", "setting": "Human α6β4 nAChR [1]", "result": 15, "unit": "µM"}]}, {"smiles": "c1cnc2cc3c(cc2n1)[C@@H]1CNC[C@H]3C1", "note": "[varenicline]", "values": [{"measurement": "Agonist-evoked calcium flux (FLIPR signal)", "setting": "Human α6β4 nAChR [1]; [4]", "result": "enhances calcium flux in a dose-dependent manner"}]}]}
